Data set [1] deals with Human alphaherpesvirus 1. Nature of the data set: Antiviral activity against HSV-1 infected in African green monkey Vero cells assessed as reduction in plague formation at 10 uM measured after 48 hrs by crystal violet staining based plaque formation assay. Type of data set: functional, organism-based.
For data set [2], the system named is Human alphaherpesvirus 2. Nature of the data set: Antiviral activity against HSV-2 infected in African green monkey Vero cells assessed as reduction in plague formation measured after 48 hrs by crystal violet staining based plaque formation assay. The class given is functional, organism-based. The settings on record: dose 0.63-10 µM.
For another data set, the system named is Zika virus. Nature of the data set: Antiviral activity against Zika virus at 20 uM. The class given is functional, organism-based.
The next data set concerns Dengue virus. The experiment in a line: Antiviral activity against Dengue virus at 20 uM. Type of data set: functional, organism-based.
Data set [3] relates to Human alphaherpesvirus 2. Nature of the data set: Antiviral activity against HSV-2 infected in African green monkey Vero cells assessed as inhibition of syncytium formation at 0.63 to 10 uM coinfected for 1 hr and measured after 24 hrs by H&E staining based optical microscopic analysis. The settings on record: dose 0.63-10 µM, time 25.0 hrs. Type of data set: functional, organism-based.

Data set [4] has as its system Human alphaherpesvirus 1. Nature of the data set: Antiviral activity against HSV-1 infected in African green monkey Vero cells assessed as reduction in virus induced gD protein expression at 2.5 uM by western blot analysis. The class given is functional, organism-based. On the technique in general: In western blotting, separated proteins are transferred to a membrane and probed.

Data set [5] concerns Human alphaherpesvirus 2. The experiment in a line: Antiviral activity against HSV-2 infected in African green monkey Vero cells assessed as reduction in gD protein expression under co-treatment condition by western blot analysis. The class given is functional, organism-based.
For data set [6], the system named is Human alphaherpesvirus 2. Nature of the data set: Antiviral activity against HSV-2 infected in African green monkey Vero cells assessed as reduction in virus induced gD protein expression at 1.3 uM by western blot analysis. Type of data set: functional, organism-based.
The test system of data set [7] is Human alphaherpesvirus 2. Nature of the data set: Antiviral activity against HSV-2 infected in African green monkey Vero cells assessed as reduction in virus induced glycoprotein D gene expression measured after 48 hrs by qRT-PCR analysis. The class given is functional, organism-based. As to conditions: dose 0.63-10 µM.
In data set [8] the test system is Human alphaherpesvirus 2. Nature of the data set: Antiviral activity against HSV-2 infected in African green monkey Vero cells assessed as inhibition of viral replication incubated for 3 days by MTT assay. Type of data set: functional, organism-based. As to conditions: Human alphaherpesvirus 2, Vero, 72 h.
Data set [9] relates to Human alphaherpesvirus 1. Nature of the data set: Antiviral activity against HSV-1 infected in African green monkey Vero cells assessed as reduction in virus induced VP16 gene expression measured after 48 hrs by qRT-PCR analysis. Type of data set: functional, organism-based. The settings on record: dose 0.63-10 µM. (In qPCR the cycle at which signal appears reflects the starting amount.)

The test system of data set [10] is Human alphaherpesvirus 1. Nature of the data set: Antiviral activity against HSV-1 infected in African green monkey Vero cells assessed as inhibition of viral replication incubated for 3 days by MTT assay. The class given is functional, organism-based. As to conditions: Human alphaherpesvirus 1, Vero, 72 h. On the technique in general: Tetrazolium dyes change colour on reduction, which living cells bring about.

Data set [11] is described as follows: Cytotoxicity against African green monkey Vero cells assessed as reduction in cell viability incubated for 3 days by MTT assay. The class given is toxicity, cell-based. The settings on record: chlorocebus sabaeus, time 3 day.
In data set [12] the target is T1, Pancreatic triacylglycerol lipase (Homo sapiens) (UniProt P16233).
T1 sequence (whole entry): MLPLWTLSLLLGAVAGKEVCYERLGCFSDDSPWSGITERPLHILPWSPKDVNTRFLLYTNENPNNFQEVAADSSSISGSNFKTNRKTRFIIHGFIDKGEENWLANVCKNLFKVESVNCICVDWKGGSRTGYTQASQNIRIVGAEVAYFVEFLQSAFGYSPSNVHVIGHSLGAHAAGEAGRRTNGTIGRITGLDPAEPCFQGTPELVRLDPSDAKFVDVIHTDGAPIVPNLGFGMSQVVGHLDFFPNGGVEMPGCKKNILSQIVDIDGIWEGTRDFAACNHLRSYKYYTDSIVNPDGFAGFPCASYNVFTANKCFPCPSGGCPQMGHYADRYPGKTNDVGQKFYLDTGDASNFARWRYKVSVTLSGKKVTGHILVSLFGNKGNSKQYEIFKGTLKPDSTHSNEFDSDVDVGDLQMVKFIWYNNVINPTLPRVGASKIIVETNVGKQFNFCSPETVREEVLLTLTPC
The experiment in a line: Inhibition of pancreatic lipase (unknown origin) at 100 uM.

The test system of data set [13] is Human alphaherpesvirus 2. The experiment in a line: Antiviral activity against HSV-2 infected in African green monkey Vero cells assessed as reduction in virus induced VP16 gene expression measured after 48 hrs by qRT-PCR analysis. Type of data set: functional, organism-based. As to conditions: dose 0.63-10 µM.
Data set [14] has as its system Human alphaherpesvirus 1. The experiment in a line: Antiviral activity against HSV-1 infected in African green monkey Vero cells assessed as reduction in virus-induced cytopathic effect measured after 48 hrs by MTT assay. The class given is functional, organism-based. As to conditions: dose 0.63-10 µM.
Data set [15] concerns Human alphaherpesvirus 1. The experiment in a line: Antiviral activity against HSV-1 infected in African green monkey Vero cells assessed as inhibition of syncytium formation at 0.63 to 10 uM coinfected for 1 hr and measured after 24 hrs by H&E staining based optical microscopic analysis. The class given is functional, organism-based. As to conditions: dose 0.63-10 µM, time 25.0 hrs.

Data set [16] has as its system Human alphaherpesvirus 1. Nature of the data set: Antiviral activity against HSV-1 infected in African green monkey Vero cells assessed as reduction in virus induced glycoprotein D gene expression measured after 48 hrs by qRT-PCR analysis. Type of data set: functional, organism-based. The settings on record: dose 0.63-10 µM.
Data set [17] has as its system Human alphaherpesvirus 2. The experiment in a line: Antiviral activity against HSV-2 infected in African green monkey Vero cells assessed as reduction in virus-induced cytopathic effect measured after 48 hrs by MTT assay. The settings on record: dose 0.63-10 µM. The class given is functional, organism-based.
For data set [18], the system named is Human alphaherpesvirus 1. Nature of the data set: Antiviral activity against HSV-1 infected in African green monkey Vero cells assessed as reduction in plague formation measured after 48 hrs by crystal violet staining based plaque formation assay. Type of data set: functional, organism-based. As to conditions: dose 0.63-10 µM.
Another data set relates to HSV-2. Nature of the data set: Selectivity index, ratio of CC50 for african green monkey Vero cells to EC50 for HSV-2 infected in African green monkey Vero cells. As to conditions: HSV-2 infected Vero cells. The class given is toxicity.
The subject of data set [19] is Human alphaherpesvirus 2. Nature of the data set: Antiviral activity against HSV-2 infected in African green monkey Vero cells assessed as reduction in plague formation at 5 uM measured after 48 hrs by crystal violet staining based plaque formation assay. Type of data set: functional, organism-based.
The target in another data set is Acetylcholinesterase (Homo sapiens, UniProt P22303). The experiment in a line: Inhibition of AChE (unknown origin).
Acetylcholinesterase, sequence (P22303 whole entry): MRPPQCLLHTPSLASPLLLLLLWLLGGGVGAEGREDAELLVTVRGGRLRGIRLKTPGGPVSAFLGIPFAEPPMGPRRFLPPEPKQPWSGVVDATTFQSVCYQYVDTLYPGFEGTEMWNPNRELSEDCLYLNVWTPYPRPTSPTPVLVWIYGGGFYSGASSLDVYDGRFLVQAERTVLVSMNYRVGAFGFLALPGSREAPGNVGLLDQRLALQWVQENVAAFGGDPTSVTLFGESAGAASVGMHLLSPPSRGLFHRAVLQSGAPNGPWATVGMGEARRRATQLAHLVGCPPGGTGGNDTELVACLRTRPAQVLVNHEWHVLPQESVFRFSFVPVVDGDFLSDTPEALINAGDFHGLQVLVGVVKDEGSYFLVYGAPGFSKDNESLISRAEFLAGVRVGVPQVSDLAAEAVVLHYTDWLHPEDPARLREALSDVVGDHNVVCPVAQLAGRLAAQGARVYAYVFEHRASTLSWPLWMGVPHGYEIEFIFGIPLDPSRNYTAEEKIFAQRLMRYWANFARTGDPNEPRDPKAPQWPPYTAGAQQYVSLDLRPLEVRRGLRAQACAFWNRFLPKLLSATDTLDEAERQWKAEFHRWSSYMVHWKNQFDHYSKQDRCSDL
The subject of a further data set is HSV-1. The experiment in a line: Selectivity index, ratio of CC50 for african green monkey Vero cells to EC50 for HSV-1 infected in African green monkey Vero cells. Type of data set: toxicity. As to conditions: HSV-1 infected Vero cells.

pEC50, pIC50: −log10 of the molar value. Active and inactive are the calls of the source. No cut-off for these calls is given here.

The record followed here is ChEMBL document CHEMBL5038622, “p-Terphenyls as Anti-HSV-1/2 Agents from a Deep-Sea-Derived Penicillium sp” (J Nat Prod, 2021).

By pEC50 is commonly meant the EC50 on a negative log10 scale, so that one unit is a factor of ten. By CC50 is commonly meant the concentration that lowers cell viability or growth by half. As a reminder, the pIC50 is the negative decadic logarithm of the IC50, by convention in mol/L.

`COc1c(-c2ccc(O)cc2)cc2oc3cc(O)c(O)cc3c2c1O`: the result with Human alphaherpesvirus 1 [1], in the data set on Human alphaherpesvirus 2 [2], in the data set on Human alphaherpesvirus 2 [3], with Human alphaherpesvirus 1 [4], with Human alphaherpesvirus 2 [5] and with Human alphaherpesvirus 2 [6] was Active. In addition, the result with Human alphaherpesvirus 1 [15], in the data set on Human alphaherpesvirus 1 [18] and with Human alphaherpesvirus 2 [19] was Active. The result in the data set on Zika virus and in the data set with Dengue virus was inactive. Further, the Activity result in the data set with Human alphaherpesvirus 2 [7], with Human alphaherpesvirus 1 [9], with Human alphaherpesvirus 2 [13], with Human alphaherpesvirus 1 [14], with Human alphaherpesvirus 1 [16] and in the data set with Human alphaherpesvirus 2 [17] was “Dose-Dependent Effect” in each case. The pEC50 in the data set with Human alphaherpesvirus 2 [8] is 5.85; with Human alphaherpesvirus 1 [10] it was 5.66. In addition, the cytotoxic concentration (CC50) at 72 h in data set [11] was > 100 µM. Further, the inhibition result in [12] is “inactive”. Besides, the selectivity ratio in the data set on HSV-2 is > 73.5; in the data set on HSV-1, > 45.7. The same compound showed a negative-log IC50 (pIC50) on Acetylcholinesterase of 4.80.
As to `COc1c(-c2ccc(O)c(O)c2)cc2oc3cc(O)c(O)cc3c2c1O`, the pEC50 in the data set with Human alphaherpesvirus 2 [8] was 5.62; in the data set with Human alphaherpesvirus 1 [10], 5.37. Also, the CC50 at 72 h in [11] is > 100 µM. In addition, the selectivity ratio in the data set on HSV-2 is > 41.5; in the data set with HSV-1, > 23.
Regarding `O=c1cc(-c2ccc(O)c(O)c2)c(-c2ccc(O)c(O)c2)co1`, the pEC50 was 5.07 in the data set on Human alphaherpesvirus 2 [8] and 5.03 in the data set on Human alphaherpesvirus 1 [10]. Also, the CC50 at 72 h in [11] is > 100 µM. Besides, the figures for the selectivity ratio in the data set on HSV-2 and with HSV-1 were > 11.7 and > 10.8, respectively.
As to `COc1c(-c2ccc(O)cc2)cc(O)c(-c2ccc(O)c(O)c2)c1O`, the values for the pEC50 in the data set on Human alphaherpesvirus 2 [8] and with Human alphaherpesvirus 1 [10] were 5.64 and 5.74, respectively. Also, the 50% cytotoxic concentration (CC50) at 72 h in data set [11] was > 100 µM. Besides, the selectivity ratio in the data set on HSV-2 was > 43.7; in the data set with HSV-1 it was > 54.4.
For `Nc1nc2c(ncn2COCCO)c(=O)[nH]1` [ACYCLOVIR], in that order: 5.34, 5.44, > 100 µM, > 21.9 and > 27.9.
As to `O=C1C(c2ccc(O)cc2)=CC(=O)c2c1oc1cc(O)c(O)cc21`, the pEC50 in the data set on Human alphaherpesvirus 2 [8] and with Human alphaherpesvirus 1 [10] was < 4.70 throughout.
On to `COc1c(-c2ccc(O)c(O)c2)cc(O)c2c1oc1cc(O)c(O)cc12` [6'-DESMETHYLCANDIDUSIN B], for which the pEC50 in the data set with Human alphaherpesvirus 2 [8] is 5.68; in the data set on Human alphaherpesvirus 1 [10] it was 5.39. In addition, the CC50 at 72 h in data set [11] was > 100 µM. In addition, the results for the selectivity ratio in the data set on HSV-2 and in the data set with HSV-1 were > 48.5 and > 24.4, respectively.
For `COc1c(-c2ccc(O)cc2)cc(O)c2c1oc1cc(O)c(O)cc12`, in that order: 5.19, 5.39, > 100 µM, > 15.4 and > 24.7.
For `COc1c(-c2ccc(O)c(O)c2)cc(O)c(-c2ccc(O)c(O)c2)c1O`, in that order: 5.38, 5.42, > 100 µM, > 23.8 and > 26.5.
Take `COC(=O)c1cc(O)cc(OC)c1C(=O)c1c(O)cc(C)cc1O` [SULOCHRIN]: the pEC50 in the data set with Human alphaherpesvirus 2 [8] and with Human alphaherpesvirus 1 [10] was < 4.70 throughout.
